From patent publication US8586588B2, “Aryl pyridazinone derivatives and their use as H3 receptor ligands” (Cephalon, Inc., priority 2006, dated 2013) come the findings set out here.

One series deals with T1, human H3 receptor (Homo sapiens, UniProt Q9Y5N1).
T1 construct: expressed in transfected cells
As to the kind of experiment: Human H3 radioligand binding ([3H]-N-alpha-methylhistamine, CHO cell membranes, SPA). To be noted: Table B, binding constant as letter class. The method, boiled down: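 Scintillation proximity format: bead-proximal [3H]-N-alpha-methylhistamine (approximately 1 nM final) bound to human H3 receptor in CHO membranes was counted after 4 h at room temperature, light-protected. Buffer was pH 7.4 Tris/MgCl2/BSA; test compounds spanned 0.01 nM-30 μM; 10 μM clobenpropit set non-specific binding.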

Series [1] addresses T2, rat histamine H3 receptor (Rattus norvegicus, UniProt Q9QYN8).
T2 construct: encoding the entire 445-amino-acid rat histamine H3 receptor; expressed in transfected cells
As to the kind of experiment: Rat H3 radioligand binding ([3H]-N-alpha-methylhistamine, CHO-A3 cell membranes, SPA). Conditions: Table B, binding constant as letter class; read-out: rat H3 Ki. The essentials:
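Scintillation proximity displacement of about 1 nM [3H]-N-alpha-methylhistamine, test compound 0.01 nM-30 μM, 4 h, room temperature, in the dark. Receptor source: rat H3 stably transfected into CHO-A3 cells, 10 μg membrane protein, Tris-HCl pH 7.4/MgCl2/BSA buffer. Nonspecific binding defined by 10 μM clobenpropit.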

Molecules are shown by their SMILES.

T1 sequence (Q9Y5N1 whole entry): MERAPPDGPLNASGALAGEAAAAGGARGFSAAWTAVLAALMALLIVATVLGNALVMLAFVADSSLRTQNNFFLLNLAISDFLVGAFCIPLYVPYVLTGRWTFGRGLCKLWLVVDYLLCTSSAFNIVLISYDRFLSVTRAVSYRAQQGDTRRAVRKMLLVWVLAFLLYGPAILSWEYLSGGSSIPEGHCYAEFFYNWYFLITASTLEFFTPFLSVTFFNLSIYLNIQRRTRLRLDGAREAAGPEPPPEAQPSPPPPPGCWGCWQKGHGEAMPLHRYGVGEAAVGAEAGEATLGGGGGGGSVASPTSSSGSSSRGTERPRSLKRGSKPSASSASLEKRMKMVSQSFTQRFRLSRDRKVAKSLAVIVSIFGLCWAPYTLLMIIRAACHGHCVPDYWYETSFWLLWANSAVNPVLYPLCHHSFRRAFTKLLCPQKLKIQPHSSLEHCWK
T2 sequence (Q9QYN8 whole entry): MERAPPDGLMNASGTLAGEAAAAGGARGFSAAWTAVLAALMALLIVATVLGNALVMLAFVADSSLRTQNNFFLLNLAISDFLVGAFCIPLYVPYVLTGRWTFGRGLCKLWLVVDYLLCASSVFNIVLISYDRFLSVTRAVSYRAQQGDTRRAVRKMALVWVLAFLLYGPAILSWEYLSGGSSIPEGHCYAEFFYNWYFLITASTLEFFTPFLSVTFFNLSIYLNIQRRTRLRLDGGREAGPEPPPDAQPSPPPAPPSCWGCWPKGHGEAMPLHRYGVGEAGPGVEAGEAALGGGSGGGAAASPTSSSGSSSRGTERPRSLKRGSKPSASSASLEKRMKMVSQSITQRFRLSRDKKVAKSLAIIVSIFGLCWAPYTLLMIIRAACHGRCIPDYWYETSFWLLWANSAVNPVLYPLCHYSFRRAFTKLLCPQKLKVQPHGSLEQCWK

What is called Ki is the equilibrium dissociation constant of an inhibitor or competing ligand from its target. The melting point is the temperature of the solid-liquid transition. `CC1=NNC(=O)CC1c1ccc(OC2CCN(C3CCC3)CC2)cc1` (stereo not drawn) [Example 110, 5-[4-(1-Cyclobutyl-piperidin-4-yloxy)-phenyl]-6-methyl-4,5-dihydro-2H-pyridazin-3-one] returned a melting point of 178 to 179 °C. Besides, the Ki at human H3 receptor lay in the range of 0.1 to 100 nM. Further, the Ki in series [1] was 0.1 to 100 nM.

As for `O=C1CCC(c2ccc(OCCCN3CCCCC3)c(F)c2)=NN1` [Example 181, 6-[3-Fluoro-4-(3-piperidin-1-yl-propoxy)-phenyl]-4,5-dihydro-2H-pyridazin-3-one], the melting point is 164 to 166 °C. On human H3 receptor, the inhibitory constant (Ki) is 0.1 to 100 nM. Besides, in series [1], the Ki lay within 101 to 500 nM.

Molecule `Cc1cccc(-n2ncc(-c3ccc(OCCCN4CCC[C@H]4C)cc3)cc2=O)n1` [Example 98, 2-(6-Methyl-pyridin-2-yl)-5-{4-[3-((R)-2-methyl-pyrrolidin-1-yl)-propoxy]-phenyl}-2H-pyridazin-3-one] displayed a melting point of 118 to 120 °C. Further, the Ki on human H3 receptor was in the range of 0.1 to 100 nM. The Ki in series [1] fell in the range of 0.1 to 100 nM.

`C[C@@H]1CCCN1CCCOc1ccc(C2=NN(CC(F)(F)F)C(=O)CC2)cc1` [Example 168, 6-{4-[3-((R)-2-Methyl-pyrrolidin-1-yl)-propoxy]-phenyl}-2-(2,2,2-trifluoro-ethyl)-4,5-dihydro-2H-pyridazin-3-one]: the melting point fell in the range of 76 to 78 °C. The same molecule had a Ki on human H3 receptor of 0.1 to 100 nM. Further, the Ki in series [1] was 0.1 to 100 nM.

In turn, `O=c1[nH]nc(-c2ccc(OC3CCN(C4CCC4)CC3)cc2)c2c1CCC2` [Example 176, 4-[4-(1-Cyclobutyl-piperidin-4-yloxy)-phenyl]-2,5,6,7-tetrahydro-cyclopenta[d]pyridazin-1-one] had a melting point of 210 to 213 °C. Further, the Ki on human H3 receptor was 0.1 to 100 nM. Further, the Ki in series [1] lay in the range of 0.1 to 100 nM.

For the molecule `O=c1ccc(-c2ccc(OC3CCN(C4CCC4)CC3)cc2)n[nH]1` [Example 155, 6-[4-(1-Cyclobutyl-piperidin-4-yloxy)-phenyl]-2H-pyridazin-3-one], the melting point was 215 to 220 °C. For the same molecule, the Ki at human H3 receptor lay in the range of 0.1 to 100 nM. In series [1], the Ki was 0.1 to 100 nM.

Molecule `C[C@@H]1CCCN1CCCOc1ccc(C2=NNC(=O)C3CCCC23)cc1` (stereo partly drawn) [Example 175, 4-{4-[3-((R)-2-Methyl-pyrrolidin-1-yl)-propoxy]-phenyl}-2,4a,5,6,7,7a-hexahydro-cyclopenta[d]pyridazin-1-one] yielded a melting point of 218 to 219 °C. The molecule further came in with a Ki at human H3 receptor of 0.1 to 100 nM. Moreover, the Ki in series [1] was in the range of 0.1 to 100 nM.

With `CC(C)N1CCC(COc2ccc(-c3ccc(=O)[nH]n3)cn2)CC1` [Example 140, 6-[6-(1-Isopropyl-piperidin-4-ylmethoxy)-pyridin-3-yl]-2H-pyridazin-3-one], the melting point was 188 to 191 °C. This molecule also displayed a Ki at human H3 receptor of 101 to 500 nM. In series [1], the Ki was 501 to 1000 nM.

For `C[C@@H]1CCCN1C[C@H](O)COc1ccc(-c2ccc(=O)[nH]n2)cc1` [Example 257, 6-{4-[(S)-2-Hydroxy-3-((R)-2-methyl-pyrrolidin-1-yl)-propoxy]-phenyl}-2H-pyridazin-3-one], the melting point was determined as 156 °C. This molecule had a Ki on human H3 receptor of 0.1 to 100 nM. The Ki in series [1] fell in the range of 0.1 to 100 nM.

Regarding `CCc1cc(=O)[nH]nc1-c1ccc(OCCCN2CCC[C@H]2C)cc1` [Example 211, 5-Ethyl-6-{4-[3-((R)-2-methyl-pyrrolidin-1-yl)-propoxy]-phenyl}-2H-pyridazin-3-one], the melting point was in the range of 272 to 275 °C. The molecule further came in with a Ki at human H3 receptor of 0.1 to 100 nM. In series [1], the Ki lay within 0.1 to 100 nM.

With `C[C@@H]1CCCN1CC(O)COc1ccc(-c2ccc(=O)[nH]n2)cc1` (stereo partly drawn) [Example 256, 6-{4-[2-Hydroxy-3-((R)-2-methyl-pyrrolidin-1-yl)-propoxy]-phenyl}-2H-pyridazin-3-one], the melting point is 153 °C. This molecule also returned a Ki on human H3 receptor of 0.1 to 100 nM. Moreover, in series [1], the Ki was 101 to 500 nM.

As for `O=c1ccc(-c2ccc(OCCCN3CCCC3)cc2)n[nH]1` [Example 240, 6-[4-(3-Pyrrolidin-1-yl-propoxy)-phenyl]-2H-pyridazin-3-one], the melting point lay within 154 to 157 °C. Besides, the Ki on human H3 receptor was 0.1 to 100 nM. Further, the Ki in series [1] lay within 0.1 to 100 nM.

In the case of `Cc1n[nH]c(=O)cc1-c1ccc(OC2CCNCC2)cc1.Cl` [Example 102, 6-methyl-5-[4-(piperidin-4-yloxy)-phenyl]-2H-pyridazin-3-one], the melting point is 225 to 227 °C. Also, at human H3 receptor, the Ki is above 1000 nM. Further, the Ki in series [1] is above 1000 nM.

`O=C1CCC(c2ccc(OC3CCN(C4CCC4)CC3)cc2)=NN1C1CCC1` [Example 163, 2-Cyclobutyl-6-[4-(1-cyclobutyl-piperidin-4-yloxy)-phenyl]-4,5-dihydro-2H-pyridazin-3-one]: the melting point was 120 to 123 °C. Moreover, at human H3 receptor, the inhibition constant (Ki) is 0.1 to 100 nM. Also, the Ki in series [1] was 0.1 to 100 nM.

As to `C[C@@H]1CCCN1CCCOc1ccc(-c2ccc(=O)[nH]n2)cc1C#N` [Example 129, 2-[3-((R)-2-Methyl-pyrrolidin-1-yl)-propoxy]-5-(6-oxo-1,6-dihydro-pyridazin-3-yl)-benzonitrile], the melting point is > 200 °C (dec.). On human H3 receptor, the Ki lay within 0.1 to 100 nM. The Ki in series [1] was 101 to 500 nM.

Consider `C[C@H](COc1ccc(-c2ccc(=O)[nH]n2)cc1)CN1CCC[C@H]1C` [Example 132], for which the melting point is 163 to 167 °C. At human H3 receptor, this molecule gave a Ki of 0.1 to 100 nM. Besides, the Ki in series [1] is 0.1 to 100 nM.

The molecule `C[C@@H](COc1ccc(-c2cn[nH]c(=O)c2)cc1)CN1CCCCC1` [Example 228, 5-[4-((R)-2-Methyl-3-piperidin-1-yl-propoxy)-phenyl]-2H-pyridazin-3-one] displayed a melting point of 160 to 163 °C. On human H3 receptor, the Ki was in the range of 0.1 to 100 nM. For the same molecule, in series [1], the Ki lay in the range of 101 to 500 nM.

With `C[C@@H]1CCCN1CCCOc1ccc(-n2nc(-c3cccnc3)ccc2=O)cc1` [Example 204, 2-{4-[3-((R)-2-Methyl-pyrrolidin-1-yl)-propoxy]-phenyl}-6-pyridin-3-yl-2H-pyridazin-3-one], the melting point fell in the range of 87 to 90 °C. On human H3 receptor, this molecule yielded a Ki of 0.1 to 100 nM. In addition, in series [1], the Ki lay within 0.1 to 100 nM.

For the molecule `COc1cc(-c2ccc(=O)[nH]n2)ccc1OCCCN1CCC[C@H]1C` [Example 136, 6-{3-Methoxy-4-[3-((R)-2-methyl-pyrrolidin-1-yl)-propoxy]-phenyl}-2H-pyridazin-3-one], the melting point is 148 °C (dec.). For the same molecule, at human H3 receptor, the Ki lay within 0.1 to 100 nM. Moreover, in series [1], the Ki was in the range of 101 to 500 nM.

Consider `O=c1ccc(-c2ccc(OCCCN3CCCCC3)cc2)nn1CC(F)(F)F` [Example 171, 6-[4-(3-Piperidin-1-yl-propoxy)-phenyl]-2-(2,2,2-trifluoro-ethyl)-2H-pyridazin-3-one], for which the melting point lay in the range of 128 to 130 °C. In addition, the Ki at human H3 receptor fell in the range of 0.1 to 100 nM. Further, the Ki in series [1] was 0.1 to 100 nM.

`O=C1CCC(c2ccc(OC3CCN(C4CCC4)CC3)cc2)=NN1CC(F)(F)F` [Example 166, 6-[4-(1-Cyclobutyl-piperidin-4-yloxy)-phenyl]-2-(2,2,2-trifluoro-ethyl)-4,5-dihydro-2H-pyridazin-3-one] gave a melting point of 146 to 147 °C. The Ki at human H3 receptor lay within 0.1 to 100 nM. Moreover, in series [1], the Ki lay within 0.1 to 100 nM.

For the molecule `O=c1ccc(-c2ccc(OCCCN3CCCCC3)cc2)n[nH]1` [Example 134, 6-[4-(3-Piperidin-1-yl-propoxy)-phenyl]-2H-pyridazin-3-one], the melting point is 186 °C (dec.). For the same molecule, on human H3 receptor, the Ki lay in the range of 0.1 to 100 nM. Moreover, the Ki in series [1] lay within 0.1 to 100 nM.

For `C[C@@H]1CCCN1CCCOc1c(F)cc(-c2ccc(=O)[nH]n2)cc1F` [Example 184, 6-{3,5-Difluoro-4-[3-((R)-2-methyl-pyrrolidin-1-yl)-propoxy]-phenyl}-2H-pyridazin-3-one], the melting point was 169 to 171 °C. The molecule also showed an inhibition constant (Ki) on human H3 receptor of 0.1 to 100 nM. Besides, in series [1], the Ki fell in the range of 0.1 to 100 nM.

For `CC1(C)CC(c2ccc(OC3CCN(C4CCC4)CC3)c(F)c2)=NNC1=O` [Example 153, 6-[4-(1-Cyclobutyl-piperidin-4-yloxy)-3-fluoro-phenyl]-4,4-dimethyl-4,5-dihydro-2H-pyridazin-3-one], the melting point fell in the range of 147 to 149 °C. Moreover, the Ki on human H3 receptor is 0.1 to 100 nM. The Ki in series [1] is 0.1 to 100 nM.

In turn, `Cc1cc(=O)[nH]nc1-c1ccc(OCCCN2CCC[C@H]2C)cc1` [Example 210, 5-Methyl-6-{4-[3-((R)-2-methyl-pyrrolidin-1-yl)-propoxy]-phenyl}-2H-pyridazin-3-one] gave a melting point of 253 to 255 °C. The Ki at human H3 receptor was 0.1 to 100 nM. Also, the Ki in series [1] lay in the range of 0.1 to 100 nM.

For `C[C@@H]1CCCN1CCCOc1c(Br)cc(-c2cn[nH]c(=O)c2)cc1Br` [Example 229], the melting point lay in the range of 175 to 180 °C. The inhibitory constant (Ki) at human H3 receptor is 0.1 to 100 nM. Moreover, the Ki in series [1] was 501 to 1000 nM.

`O=C1CC2CCc3cc(OC4CCN(C5CCC5)CC4)ccc3C2=NN1` (stereo not drawn) [Example 220, 8-(1-Cyclobutyl-piperidin-4-yloxy)-4,4a,5,6-tetrahydro-2H-benzo[h]cinnolin-3-one] returned a melting point above 300 °C. The molecule also had a Ki on human H3 receptor of 0.1 to 100 nM. Besides, the Ki in series [1] is 0.1 to 100 nM.

Regarding `O=c1cc(-c2ccccn2)c(-c2ccc(OC3CCN(C4CCC4)CC3)cc2)n[nH]1` [Example 115, 6-[4-(1-Cyclobutyl-piperidin-4-yloxy)-phenyl]-5-pyridin-2-yl-2H-pyridazin-3-one], the melting point was 203 °C (dec.). On human H3 receptor, this molecule came in with a Ki of 0.1 to 100 nM. The Ki in series [1] fell in the range of 0.1 to 100 nM.
